From ChEMBL document CHEMBL1145498, “A systematic interaction map of validated kinase inhibitors with Ser/Thr kinases” (Proc Natl Acad Sci U S A, 2007)

Target: 5'-AMP-activated protein kinase catalytic subunit alpha-2 (Homo sapiens) (UniProt P54646)
Sequence (P54646 whole entry, looked up): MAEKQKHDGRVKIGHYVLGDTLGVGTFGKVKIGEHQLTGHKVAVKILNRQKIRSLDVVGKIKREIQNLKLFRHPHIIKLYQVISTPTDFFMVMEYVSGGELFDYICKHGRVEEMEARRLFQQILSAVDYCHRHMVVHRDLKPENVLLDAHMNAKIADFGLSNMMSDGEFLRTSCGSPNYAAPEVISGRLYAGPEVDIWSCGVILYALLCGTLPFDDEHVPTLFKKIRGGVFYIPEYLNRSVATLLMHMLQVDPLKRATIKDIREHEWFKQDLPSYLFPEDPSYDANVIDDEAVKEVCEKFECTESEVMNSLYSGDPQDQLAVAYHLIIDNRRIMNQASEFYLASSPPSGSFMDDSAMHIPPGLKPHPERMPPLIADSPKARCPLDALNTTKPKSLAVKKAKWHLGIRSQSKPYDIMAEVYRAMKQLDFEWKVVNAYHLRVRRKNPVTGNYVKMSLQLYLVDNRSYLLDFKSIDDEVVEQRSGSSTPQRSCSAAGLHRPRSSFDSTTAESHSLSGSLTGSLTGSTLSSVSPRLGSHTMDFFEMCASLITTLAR

| ΔTm | SMILES |
| --- | --- |
| 2.6 °C | Cc1ccc(NC(=O)c2ccc(CN3CCN(C)CC3)cc2)cc1Nc1nccc(-c2cccnc2)n1 |
| -0.1 °C | COc1ccc(CNC(=O)Nc2ncc([N+](=O)[O-])s2)cc1 |

| SMILES | ΔTm |
| --- | --- |
| COC(=O)[C@]1(O)C[C@@H]2O[C@@]1(C)n1c3ccccc3c3c4c(c5c6ccccc6n2c5c31)C(=O)NC4 (single isomer, unassigned) | 7.6 °C |

Target: Calcium/calmodulin-dependent protein kinase type II subunit alpha (Homo sapiens) (UniProt Q9UQM7)

| ΔTm | SMILES |
| --- | --- |
| 0.2 °C | Cc1ccc(NC(=O)c2ccc(CN3CCN(C)CC3)cc2)cc1Nc1nccc(-c2cccnc2)n1 |
| -0.1 °C | COc1ccc(CNC(=O)Nc2ncc([N+](=O)[O-])s2)cc1 |

| SMILES | ΔTm |
| --- | --- |
| COC(=O)[C@]1(O)C[C@@H]2O[C@@]1(C)n1c3ccccc3c3c4c(c5c6ccccc6n2c5c31)C(=O)NC4 (single isomer, unassigned) | 3.2 °C |

Target: T1, Calcium/calmodulin-dependent protein kinase type IV (Homo sapiens) (UniProt Q16566)
T1 sequence (whole entry): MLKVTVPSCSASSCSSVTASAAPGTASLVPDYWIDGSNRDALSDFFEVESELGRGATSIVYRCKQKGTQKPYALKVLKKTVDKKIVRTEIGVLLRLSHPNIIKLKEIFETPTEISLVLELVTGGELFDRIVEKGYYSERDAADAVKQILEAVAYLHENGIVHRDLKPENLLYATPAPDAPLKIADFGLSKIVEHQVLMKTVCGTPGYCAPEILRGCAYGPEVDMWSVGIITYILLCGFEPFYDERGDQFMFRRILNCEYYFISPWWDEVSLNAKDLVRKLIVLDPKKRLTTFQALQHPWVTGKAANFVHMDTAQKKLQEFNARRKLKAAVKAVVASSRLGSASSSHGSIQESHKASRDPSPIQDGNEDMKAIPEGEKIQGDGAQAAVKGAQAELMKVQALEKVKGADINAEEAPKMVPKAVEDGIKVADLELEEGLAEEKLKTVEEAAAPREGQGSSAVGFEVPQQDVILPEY

| ΔTm | SMILES |
| --- | --- |
| -0.5 °C | Cc1ccc(NC(=O)c2ccc(CN3CCN(C)CC3)cc2)cc1Nc1nccc(-c2cccnc2)n1 |
| -0.1 °C | COc1ccc(CNC(=O)Nc2ncc([N+](=O)[O-])s2)cc1 |

| SMILES | ΔTm |
| --- | --- |
| COC(=O)[C@]1(O)C[C@@H]2O[C@@]1(C)n1c3ccccc3c3c4c(c5c6ccccc6n2c5c31)C(=O)NC4 (single isomer, unassigned) | 1.8 °C |

Target: Calcium/calmodulin-dependent protein kinase kinase 2 (Homo sapiens, UniProt Q96RR4)
Sequence (Q96RR4 2-588 limits assumed): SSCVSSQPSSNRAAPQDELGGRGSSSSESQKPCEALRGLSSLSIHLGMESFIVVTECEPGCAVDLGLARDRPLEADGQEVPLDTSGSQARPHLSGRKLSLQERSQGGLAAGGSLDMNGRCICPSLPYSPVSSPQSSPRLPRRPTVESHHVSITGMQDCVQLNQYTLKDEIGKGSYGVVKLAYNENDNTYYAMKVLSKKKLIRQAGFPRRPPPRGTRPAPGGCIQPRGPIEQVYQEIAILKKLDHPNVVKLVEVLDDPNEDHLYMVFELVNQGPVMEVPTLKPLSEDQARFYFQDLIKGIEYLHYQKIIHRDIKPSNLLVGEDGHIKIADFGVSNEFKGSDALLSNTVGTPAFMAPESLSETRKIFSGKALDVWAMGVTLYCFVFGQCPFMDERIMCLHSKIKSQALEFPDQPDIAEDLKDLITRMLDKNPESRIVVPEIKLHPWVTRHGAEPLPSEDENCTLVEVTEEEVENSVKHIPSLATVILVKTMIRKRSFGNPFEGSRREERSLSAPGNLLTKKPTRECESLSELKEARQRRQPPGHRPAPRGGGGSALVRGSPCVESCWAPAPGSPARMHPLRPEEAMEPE

| ΔTm | SMILES |
| --- | --- |
| 2.8 °C | Cc1ccc(NC(=O)c2ccc(CN3CCN(C)CC3)cc2)cc1Nc1nccc(-c2cccnc2)n1 |
| 0 °C | COc1ccc(CNC(=O)Nc2ncc([N+](=O)[O-])s2)cc1 |

| SMILES | ΔTm |
| --- | --- |
| COC(=O)[C@]1(O)C[C@@H]2O[C@@]1(C)n1c3ccccc3c3c4c(c5c6ccccc6n2c5c31)C(=O)NC4 (single isomer, unassigned) | 4.2 °C |

Target: Serine/threonine-protein kinase Chk2 (Homo sapiens, UniProt O96017)

| ΔTm | SMILES |
| --- | --- |
| -1.1 °C | Cc1ccc(NC(=O)c2ccc(CN3CCN(C)CC3)cc2)cc1Nc1nccc(-c2cccnc2)n1 |
| 0.4 °C | COc1ccc(CNC(=O)Nc2ncc([N+](=O)[O-])s2)cc1 |

| SMILES | ΔTm |
| --- | --- |
| COC(=O)[C@]1(O)C[C@@H]2O[C@@]1(C)n1c3ccccc3c3c4c(c5c6ccccc6n2c5c31)C(=O)NC4 (single isomer, unassigned) | 6 °C |

Target: Dual specificity protein kinase CLK1 (Homo sapiens) (UniProt P49759)

| SMILES | ΔTm |
| --- | --- |
| COc1ccc(CNC(=O)Nc2ncc([N+](=O)[O-])s2)cc1 | 0.7 °C |
| COC(=O)[C@]1(O)C[C@@H]2O[C@@]1(C)n1c3ccccc3c3c4c(c5c6ccccc6n2c5c31)C(=O)NC4 (single isomer, unassigned) | 10.6 °C |

Target: Casein kinase I isoform gamma-2 (Homo sapiens) (UniProt P78368)

| ΔTm | SMILES |
| --- | --- |
| 0.8 °C | Cc1ccc(NC(=O)c2ccc(CN3CCN(C)CC3)cc2)cc1Nc1nccc(-c2cccnc2)n1 |
| 0.1 °C | COc1ccc(CNC(=O)Nc2ncc([N+](=O)[O-])s2)cc1 |

| SMILES | ΔTm |
| --- | --- |
| COC(=O)[C@]1(O)C[C@@H]2O[C@@]1(C)n1c3ccccc3c3c4c(c5c6ccccc6n2c5c31)C(=O)NC4 (single isomer, unassigned) | 0.1 °C |

Target: Casein kinase I isoform gamma-3 (Homo sapiens) (UniProt Q9Y6M4)
Sequence (Q9Y6M4 whole entry, looked up, canonical isoform): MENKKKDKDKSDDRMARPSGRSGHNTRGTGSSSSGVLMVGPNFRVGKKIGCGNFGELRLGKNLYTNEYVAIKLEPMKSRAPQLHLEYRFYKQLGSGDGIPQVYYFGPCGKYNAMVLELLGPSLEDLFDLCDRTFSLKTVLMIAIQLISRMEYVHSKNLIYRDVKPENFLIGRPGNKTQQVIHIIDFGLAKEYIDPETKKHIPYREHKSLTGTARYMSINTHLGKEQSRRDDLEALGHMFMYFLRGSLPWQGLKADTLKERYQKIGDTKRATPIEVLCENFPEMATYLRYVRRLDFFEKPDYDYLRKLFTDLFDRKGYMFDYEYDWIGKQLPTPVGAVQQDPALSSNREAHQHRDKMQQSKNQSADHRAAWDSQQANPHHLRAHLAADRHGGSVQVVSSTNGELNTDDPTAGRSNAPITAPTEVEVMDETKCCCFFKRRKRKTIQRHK

| ΔTm | SMILES |
| --- | --- |
| 0.3 °C | Cc1ccc(NC(=O)c2ccc(CN3CCN(C)CC3)cc2)cc1Nc1nccc(-c2cccnc2)n1 |
| 0.6 °C | COc1ccc(CNC(=O)Nc2ncc([N+](=O)[O-])s2)cc1 |

| SMILES | ΔTm |
| --- | --- |
| COC(=O)[C@]1(O)C[C@@H]2O[C@@]1(C)n1c3ccccc3c3c4c(c5c6ccccc6n2c5c31)C(=O)NC4 (single isomer, unassigned) | 0.2 °C |

Target: Tyrosine-protein kinase JAK1 (Homo sapiens) (UniProt P23458)
Sequence (P23458 whole entry): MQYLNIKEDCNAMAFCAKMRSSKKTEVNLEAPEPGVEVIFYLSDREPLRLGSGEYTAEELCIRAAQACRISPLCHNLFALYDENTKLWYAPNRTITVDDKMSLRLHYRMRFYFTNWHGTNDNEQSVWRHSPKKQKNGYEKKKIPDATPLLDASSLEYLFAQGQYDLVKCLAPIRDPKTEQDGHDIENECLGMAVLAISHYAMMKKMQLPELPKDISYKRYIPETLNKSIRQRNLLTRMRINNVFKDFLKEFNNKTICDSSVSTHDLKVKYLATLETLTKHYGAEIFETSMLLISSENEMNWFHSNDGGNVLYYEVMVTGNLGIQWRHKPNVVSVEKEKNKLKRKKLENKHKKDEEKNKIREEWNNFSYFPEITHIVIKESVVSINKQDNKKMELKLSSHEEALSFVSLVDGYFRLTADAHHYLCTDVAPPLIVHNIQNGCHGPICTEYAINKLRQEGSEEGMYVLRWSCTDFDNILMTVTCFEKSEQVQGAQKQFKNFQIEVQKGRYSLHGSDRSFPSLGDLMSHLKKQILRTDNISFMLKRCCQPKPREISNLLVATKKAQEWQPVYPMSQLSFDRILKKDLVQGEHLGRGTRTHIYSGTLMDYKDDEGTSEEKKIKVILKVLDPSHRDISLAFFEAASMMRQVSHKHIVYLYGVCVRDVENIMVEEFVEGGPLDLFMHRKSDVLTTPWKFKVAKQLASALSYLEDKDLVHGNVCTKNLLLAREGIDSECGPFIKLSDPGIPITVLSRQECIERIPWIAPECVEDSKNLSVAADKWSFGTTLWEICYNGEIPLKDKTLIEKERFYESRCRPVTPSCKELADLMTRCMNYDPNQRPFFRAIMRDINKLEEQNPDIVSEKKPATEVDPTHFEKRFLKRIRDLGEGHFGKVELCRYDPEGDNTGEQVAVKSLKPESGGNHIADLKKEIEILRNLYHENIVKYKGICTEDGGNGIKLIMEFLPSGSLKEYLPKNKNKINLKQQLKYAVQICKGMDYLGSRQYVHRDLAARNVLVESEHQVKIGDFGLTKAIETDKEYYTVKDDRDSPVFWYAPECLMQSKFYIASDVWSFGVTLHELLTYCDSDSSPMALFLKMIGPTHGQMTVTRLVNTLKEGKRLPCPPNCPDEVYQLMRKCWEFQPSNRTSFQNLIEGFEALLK

| ΔTm | SMILES |
| --- | --- |
| 0.1 °C | Cc1ccc(NC(=O)c2ccc(CN3CCN(C)CC3)cc2)cc1Nc1nccc(-c2cccnc2)n1 |
| -0.9 °C | COc1ccc(CNC(=O)Nc2ncc([N+](=O)[O-])s2)cc1 |

| SMILES | ΔTm |
| --- | --- |
| COC(=O)[C@]1(O)C[C@@H]2O[C@@]1(C)n1c3ccccc3c3c4c(c5c6ccccc6n2c5c31)C(=O)NC4 (single isomer, unassigned) | 0.8 °C |

Target: T2, Dual specificity mitogen-activated protein kinase kinase 6 (Homo sapiens) (UniProt P52564)
T2 sequence (whole entry): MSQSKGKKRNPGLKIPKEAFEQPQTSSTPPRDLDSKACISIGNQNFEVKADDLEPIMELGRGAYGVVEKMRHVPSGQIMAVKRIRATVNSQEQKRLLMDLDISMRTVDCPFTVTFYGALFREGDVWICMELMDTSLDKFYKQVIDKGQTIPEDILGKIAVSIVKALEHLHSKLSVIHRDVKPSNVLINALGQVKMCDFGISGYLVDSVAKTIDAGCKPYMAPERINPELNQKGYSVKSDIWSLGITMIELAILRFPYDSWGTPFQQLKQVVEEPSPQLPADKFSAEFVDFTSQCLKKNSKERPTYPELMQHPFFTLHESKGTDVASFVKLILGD

| ΔTm | SMILES |
| --- | --- |
| 0.4 °C | Cc1ccc(NC(=O)c2ccc(CN3CCN(C)CC3)cc2)cc1Nc1nccc(-c2cccnc2)n1 |
| 0.2 °C | COc1ccc(CNC(=O)Nc2ncc([N+](=O)[O-])s2)cc1 |

Target: Mitogen-activated protein kinase 3 (Homo sapiens, UniProt P27361)

| ΔTm | SMILES |
| --- | --- |
| 0.6 °C | Cc1ccc(NC(=O)c2ccc(CN3CCN(C)CC3)cc2)cc1Nc1nccc(-c2cccnc2)n1 |
| 0.2 °C | COc1ccc(CNC(=O)Nc2ncc([N+](=O)[O-])s2)cc1 |

| SMILES | ΔTm |
| --- | --- |
| COC(=O)[C@]1(O)C[C@@H]2O[C@@]1(C)n1c3ccccc3c3c4c(c5c6ccccc6n2c5c31)C(=O)NC4 (single isomer, unassigned) | 2 °C |

Target: Serine/threonine-protein kinase Nek6 (Homo sapiens) (UniProt Q9HC98)
Sequence (Q9HC98 whole entry): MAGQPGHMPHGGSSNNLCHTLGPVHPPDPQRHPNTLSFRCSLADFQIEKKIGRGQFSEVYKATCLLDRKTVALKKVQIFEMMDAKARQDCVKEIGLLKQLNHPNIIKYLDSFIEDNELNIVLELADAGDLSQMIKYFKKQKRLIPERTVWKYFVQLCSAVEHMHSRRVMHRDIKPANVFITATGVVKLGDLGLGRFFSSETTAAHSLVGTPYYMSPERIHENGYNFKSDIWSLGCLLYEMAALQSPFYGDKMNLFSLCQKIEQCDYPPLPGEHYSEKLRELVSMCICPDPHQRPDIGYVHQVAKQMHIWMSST

| ΔTm | SMILES |
| --- | --- |
| 0.4 °C | Cc1ccc(NC(=O)c2ccc(CN3CCN(C)CC3)cc2)cc1Nc1nccc(-c2cccnc2)n1 |
| 0.4 °C | COc1ccc(CNC(=O)Nc2ncc([N+](=O)[O-])s2)cc1 |

| SMILES | ΔTm |
| --- | --- |
| COC(=O)[C@]1(O)C[C@@H]2O[C@@]1(C)n1c3ccccc3c3c4c(c5c6ccccc6n2c5c31)C(=O)NC4 (single isomer, unassigned) | 0 °C |

Target: T3, 3-phosphoinositide-dependent protein kinase 1 (Homo sapiens) (UniProt O15530)
T3 sequence (whole entry): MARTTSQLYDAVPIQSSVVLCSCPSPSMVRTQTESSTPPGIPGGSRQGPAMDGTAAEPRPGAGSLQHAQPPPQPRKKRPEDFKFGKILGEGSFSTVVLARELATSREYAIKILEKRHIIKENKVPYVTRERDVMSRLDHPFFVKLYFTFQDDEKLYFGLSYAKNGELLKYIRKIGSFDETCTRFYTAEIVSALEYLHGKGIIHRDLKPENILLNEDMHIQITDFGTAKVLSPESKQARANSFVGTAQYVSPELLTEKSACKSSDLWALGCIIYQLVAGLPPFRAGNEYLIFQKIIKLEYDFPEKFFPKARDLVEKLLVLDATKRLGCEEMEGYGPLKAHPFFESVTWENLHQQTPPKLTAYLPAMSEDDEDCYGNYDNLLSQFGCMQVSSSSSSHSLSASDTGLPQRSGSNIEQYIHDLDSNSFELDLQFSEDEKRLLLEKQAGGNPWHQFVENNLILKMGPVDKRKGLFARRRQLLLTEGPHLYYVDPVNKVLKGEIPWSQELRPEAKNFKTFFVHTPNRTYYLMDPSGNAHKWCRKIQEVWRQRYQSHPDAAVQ

| ΔTm | SMILES |
| --- | --- |
| -0.2 °C | Cc1ccc(NC(=O)c2ccc(CN3CCN(C)CC3)cc2)cc1Nc1nccc(-c2cccnc2)n1 |
| -0.3 °C | COc1ccc(CNC(=O)Nc2ncc([N+](=O)[O-])s2)cc1 |

| SMILES | ΔTm |
| --- | --- |
| COC(=O)[C@]1(O)C[C@@H]2O[C@@]1(C)n1c3ccccc3c3c4c(c5c6ccccc6n2c5c31)C(=O)NC4 (single isomer, unassigned) | -0.4 °C |

Target: cAMP-dependent protein kinase catalytic subunit alpha (Homo sapiens) (UniProt P17612)

| ΔTm | SMILES |
| --- | --- |
| 0.8 °C | Cc1ccc(NC(=O)c2ccc(CN3CCN(C)CC3)cc2)cc1Nc1nccc(-c2cccnc2)n1 |
| 1 °C | COc1ccc(CNC(=O)Nc2ncc([N+](=O)[O-])s2)cc1 |

| SMILES | ΔTm |
| --- | --- |
| COC(=O)[C@]1(O)C[C@@H]2O[C@@]1(C)n1c3ccccc3c3c4c(c5c6ccccc6n2c5c31)C(=O)NC4 (single isomer, unassigned) | 7.1 °C |

Target: Serine/threonine-protein kinase RIO2 (Homo sapiens) (UniProt Q9BVS4)
Sequence (Q9BVS4 whole entry, looked up): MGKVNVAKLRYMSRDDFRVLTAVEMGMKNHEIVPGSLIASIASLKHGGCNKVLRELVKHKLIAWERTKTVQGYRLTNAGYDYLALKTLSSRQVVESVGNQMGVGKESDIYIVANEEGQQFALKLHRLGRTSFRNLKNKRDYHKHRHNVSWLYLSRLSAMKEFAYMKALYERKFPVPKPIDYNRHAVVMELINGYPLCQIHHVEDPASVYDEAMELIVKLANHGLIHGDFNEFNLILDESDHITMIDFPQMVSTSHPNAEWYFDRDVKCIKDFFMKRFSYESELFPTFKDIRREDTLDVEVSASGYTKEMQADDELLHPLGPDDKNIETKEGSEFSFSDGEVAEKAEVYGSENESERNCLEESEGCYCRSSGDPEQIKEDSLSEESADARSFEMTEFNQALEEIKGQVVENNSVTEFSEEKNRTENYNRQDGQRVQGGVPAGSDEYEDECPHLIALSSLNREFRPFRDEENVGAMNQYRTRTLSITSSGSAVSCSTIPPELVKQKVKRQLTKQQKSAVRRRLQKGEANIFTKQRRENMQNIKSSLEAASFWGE

| ΔTm | SMILES |
| --- | --- |
| 1.2 °C | Cc1ccc(NC(=O)c2ccc(CN3CCN(C)CC3)cc2)cc1Nc1nccc(-c2cccnc2)n1 |
| 1.7 °C | COc1ccc(CNC(=O)Nc2ncc([N+](=O)[O-])s2)cc1 |

| SMILES | ΔTm |
| --- | --- |
| COC(=O)[C@]1(O)C[C@@H]2O[C@@]1(C)n1c3ccccc3c3c4c(c5c6ccccc6n2c5c31)C(=O)NC4 (single isomer, unassigned) | 1.4 °C |

Target: Ribosomal protein S6 kinase alpha-3 (Homo sapiens) (UniProt P51812)

| SMILES | ΔTm |
| --- | --- |
| Cc1ccc(NC(=O)c2ccc(CN3CCN(C)CC3)cc2)cc1Nc1nccc(-c2cccnc2)n1 | 2.1 °C |
| COC(=O)[C@]1(O)C[C@@H]2O[C@@]1(C)n1c3ccccc3c3c4c(c5c6ccccc6n2c5c31)C(=O)NC4 (single isomer, unassigned) | 7.3 °C |

Target: STE20-like serine/threonine-protein kinase (Homo sapiens) (UniProt Q9H2G2)

| ΔTm | SMILES |
| --- | --- |
| 1.7 °C | Cc1ccc(NC(=O)c2ccc(CN3CCN(C)CC3)cc2)cc1Nc1nccc(-c2cccnc2)n1 |
| 0.7 °C | COc1ccc(CNC(=O)Nc2ncc([N+](=O)[O-])s2)cc1 |

| SMILES | ΔTm |
| --- | --- |
| COC(=O)[C@]1(O)C[C@@H]2O[C@@]1(C)n1c3ccccc3c3c4c(c5c6ccccc6n2c5c31)C(=O)NC4 (single isomer, unassigned) | 6.3 °C |

Target: TRAF2 and NCK-interacting protein kinase (Homo sapiens) (UniProt Q9UKE5)
Sequence (Q9UKE5 whole entry, looked up): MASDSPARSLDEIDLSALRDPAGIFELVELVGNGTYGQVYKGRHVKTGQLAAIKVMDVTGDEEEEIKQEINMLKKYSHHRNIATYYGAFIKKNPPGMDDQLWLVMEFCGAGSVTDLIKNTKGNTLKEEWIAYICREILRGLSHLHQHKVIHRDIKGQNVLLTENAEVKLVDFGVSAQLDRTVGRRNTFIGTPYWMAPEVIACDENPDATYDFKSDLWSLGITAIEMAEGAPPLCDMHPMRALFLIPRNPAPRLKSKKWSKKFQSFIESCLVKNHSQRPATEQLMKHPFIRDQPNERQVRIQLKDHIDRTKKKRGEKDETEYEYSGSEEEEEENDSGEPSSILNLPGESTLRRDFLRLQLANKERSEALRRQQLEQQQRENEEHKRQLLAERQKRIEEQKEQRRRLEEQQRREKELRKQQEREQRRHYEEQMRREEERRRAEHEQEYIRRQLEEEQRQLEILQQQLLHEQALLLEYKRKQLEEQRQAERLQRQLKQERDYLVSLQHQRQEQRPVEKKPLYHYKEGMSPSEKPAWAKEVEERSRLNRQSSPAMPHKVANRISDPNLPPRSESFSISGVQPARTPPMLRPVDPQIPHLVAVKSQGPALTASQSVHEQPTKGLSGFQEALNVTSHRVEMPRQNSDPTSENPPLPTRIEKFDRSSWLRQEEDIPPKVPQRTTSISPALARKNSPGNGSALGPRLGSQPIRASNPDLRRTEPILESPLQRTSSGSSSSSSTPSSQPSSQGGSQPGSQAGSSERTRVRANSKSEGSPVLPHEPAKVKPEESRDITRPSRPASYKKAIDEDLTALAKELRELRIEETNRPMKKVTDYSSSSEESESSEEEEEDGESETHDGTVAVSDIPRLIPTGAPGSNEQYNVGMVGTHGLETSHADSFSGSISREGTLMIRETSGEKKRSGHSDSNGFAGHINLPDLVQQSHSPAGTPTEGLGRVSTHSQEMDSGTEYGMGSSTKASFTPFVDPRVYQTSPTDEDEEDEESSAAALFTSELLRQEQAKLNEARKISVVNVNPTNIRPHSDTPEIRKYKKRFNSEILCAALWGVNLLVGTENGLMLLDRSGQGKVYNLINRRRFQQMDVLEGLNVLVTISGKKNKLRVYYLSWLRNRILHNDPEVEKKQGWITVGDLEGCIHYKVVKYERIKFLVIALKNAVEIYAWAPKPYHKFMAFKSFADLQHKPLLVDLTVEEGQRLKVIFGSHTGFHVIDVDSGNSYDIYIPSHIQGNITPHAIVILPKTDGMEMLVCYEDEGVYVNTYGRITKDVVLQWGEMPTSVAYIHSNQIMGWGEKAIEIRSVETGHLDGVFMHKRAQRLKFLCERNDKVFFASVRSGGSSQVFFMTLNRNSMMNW

| ΔTm | SMILES |
| --- | --- |
| 0 °C | Cc1ccc(NC(=O)c2ccc(CN3CCN(C)CC3)cc2)cc1Nc1nccc(-c2cccnc2)n1 |
| 0.3 °C | COc1ccc(CNC(=O)Nc2ncc([N+](=O)[O-])s2)cc1 |

| SMILES | ΔTm |
| --- | --- |
| COC(=O)[C@]1(O)C[C@@H]2O[C@@]1(C)n1c3ccccc3c3c4c(c5c6ccccc6n2c5c31)C(=O)NC4 (single isomer, unassigned) | 8.7 °C |

Target: T4, Serine/threonine-protein kinase VRK3 (Homo sapiens) (UniProt Q8IV63)
T4 sequence (whole entry): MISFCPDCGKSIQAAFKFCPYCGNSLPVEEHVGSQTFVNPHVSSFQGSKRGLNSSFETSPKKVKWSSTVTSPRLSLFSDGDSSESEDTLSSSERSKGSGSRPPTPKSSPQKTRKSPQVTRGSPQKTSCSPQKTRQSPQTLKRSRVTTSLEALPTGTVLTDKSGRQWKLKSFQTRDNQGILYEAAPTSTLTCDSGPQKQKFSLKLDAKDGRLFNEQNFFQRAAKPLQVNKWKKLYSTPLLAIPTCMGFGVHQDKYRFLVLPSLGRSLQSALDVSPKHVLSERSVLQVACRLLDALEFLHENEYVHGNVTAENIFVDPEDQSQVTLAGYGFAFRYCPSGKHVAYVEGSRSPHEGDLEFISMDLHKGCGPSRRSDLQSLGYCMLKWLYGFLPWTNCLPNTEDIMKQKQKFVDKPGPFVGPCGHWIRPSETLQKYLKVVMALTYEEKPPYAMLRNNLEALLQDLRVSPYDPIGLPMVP

| ΔTm | SMILES |
| --- | --- |
| -0.2 °C | Cc1ccc(NC(=O)c2ccc(CN3CCN(C)CC3)cc2)cc1Nc1nccc(-c2cccnc2)n1 |
| -0.5 °C | COc1ccc(CNC(=O)Nc2ncc([N+](=O)[O-])s2)cc1 |

| SMILES | ΔTm |
| --- | --- |
| COC(=O)[C@]1(O)C[C@@H]2O[C@@]1(C)n1c3ccccc3c3c4c(c5c6ccccc6n2c5c31)C(=O)NC4 (single isomer, unassigned) | -0.2 °C |
